Measured values published in the kinase profiling compilation of Christmann-Franck et al. (2016).

What was measured:
Experiment in all cases: KINOMEscan competition binding
Settings in all cases: compound 10.0 µM
[1] = target: BLK (human) (UniProt P51451)
[2] = target: BMPR1B (human) (UniProt O00238)
[3] = target: CSNK1G1 (human) (UniProt Q9HCP0)
[4] = target: DCLK1 (human) (UniProt O15075)
[5] = target: DYRK1B (human) (UniProt Q9Y463)
[6] = test system: EIF2AK4 KD2 (human), Q9P2K8 [S808G]
[7] = target: EPHA1 (human) (UniProt P21709)
[8] = target: EPHA8 (human) (UniProt P29322)
[9] = target: FER (human) (UniProt P16591)
[10] = target: FES (human) (UniProt P07332)
Chain of FES (human) (P07332 whole entry, looked up): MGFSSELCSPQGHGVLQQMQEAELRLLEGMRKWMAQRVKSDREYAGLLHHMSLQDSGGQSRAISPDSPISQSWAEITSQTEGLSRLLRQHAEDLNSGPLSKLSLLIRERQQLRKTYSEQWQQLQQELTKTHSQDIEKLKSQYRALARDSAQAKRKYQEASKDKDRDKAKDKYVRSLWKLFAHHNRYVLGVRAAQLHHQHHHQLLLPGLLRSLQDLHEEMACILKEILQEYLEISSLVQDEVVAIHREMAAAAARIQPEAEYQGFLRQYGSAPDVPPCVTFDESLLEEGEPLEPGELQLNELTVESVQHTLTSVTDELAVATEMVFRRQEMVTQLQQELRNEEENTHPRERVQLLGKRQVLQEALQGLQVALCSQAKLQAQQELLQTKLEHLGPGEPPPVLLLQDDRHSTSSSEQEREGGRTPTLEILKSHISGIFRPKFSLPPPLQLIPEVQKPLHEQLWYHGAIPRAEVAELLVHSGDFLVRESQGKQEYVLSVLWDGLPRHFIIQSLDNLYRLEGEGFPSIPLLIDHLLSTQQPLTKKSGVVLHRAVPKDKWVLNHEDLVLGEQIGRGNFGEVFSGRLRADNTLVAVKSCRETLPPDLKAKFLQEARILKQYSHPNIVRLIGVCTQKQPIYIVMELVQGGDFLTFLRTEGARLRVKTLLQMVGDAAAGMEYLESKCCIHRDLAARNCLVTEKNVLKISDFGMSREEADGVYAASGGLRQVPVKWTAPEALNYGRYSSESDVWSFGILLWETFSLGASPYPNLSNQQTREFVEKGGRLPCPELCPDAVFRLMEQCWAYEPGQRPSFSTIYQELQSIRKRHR

[11] = target: FGFR2 (human) (UniProt P21802)
[12] = target: FGFR3 (human) (UniProt P22607)
Chain of FGFR3 (human) (P22607 whole entry, looked up): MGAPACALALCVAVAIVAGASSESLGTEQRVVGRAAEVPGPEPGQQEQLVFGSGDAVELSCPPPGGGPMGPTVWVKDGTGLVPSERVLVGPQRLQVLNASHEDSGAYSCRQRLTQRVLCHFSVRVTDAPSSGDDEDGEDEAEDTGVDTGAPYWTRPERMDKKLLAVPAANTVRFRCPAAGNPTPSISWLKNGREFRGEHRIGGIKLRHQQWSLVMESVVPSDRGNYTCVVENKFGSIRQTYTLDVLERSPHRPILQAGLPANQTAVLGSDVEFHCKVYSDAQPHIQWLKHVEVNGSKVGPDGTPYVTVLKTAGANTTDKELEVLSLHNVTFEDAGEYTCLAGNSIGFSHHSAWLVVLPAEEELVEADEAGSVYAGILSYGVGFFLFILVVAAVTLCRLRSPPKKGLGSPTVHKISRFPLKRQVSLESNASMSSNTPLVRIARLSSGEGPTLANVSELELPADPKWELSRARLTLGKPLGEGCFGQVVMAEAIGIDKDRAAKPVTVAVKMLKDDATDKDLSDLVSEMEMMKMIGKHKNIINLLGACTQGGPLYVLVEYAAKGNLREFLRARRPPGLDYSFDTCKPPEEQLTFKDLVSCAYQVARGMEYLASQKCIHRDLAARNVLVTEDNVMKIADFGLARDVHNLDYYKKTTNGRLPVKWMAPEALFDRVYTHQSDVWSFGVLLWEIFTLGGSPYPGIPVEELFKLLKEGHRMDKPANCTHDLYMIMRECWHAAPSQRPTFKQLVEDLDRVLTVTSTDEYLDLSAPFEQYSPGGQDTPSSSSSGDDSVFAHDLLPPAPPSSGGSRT

[13] = target: FLT3 (human) (UniProt P36888)
Chain of FLT3 (human) (P36888 whole entry, looked up): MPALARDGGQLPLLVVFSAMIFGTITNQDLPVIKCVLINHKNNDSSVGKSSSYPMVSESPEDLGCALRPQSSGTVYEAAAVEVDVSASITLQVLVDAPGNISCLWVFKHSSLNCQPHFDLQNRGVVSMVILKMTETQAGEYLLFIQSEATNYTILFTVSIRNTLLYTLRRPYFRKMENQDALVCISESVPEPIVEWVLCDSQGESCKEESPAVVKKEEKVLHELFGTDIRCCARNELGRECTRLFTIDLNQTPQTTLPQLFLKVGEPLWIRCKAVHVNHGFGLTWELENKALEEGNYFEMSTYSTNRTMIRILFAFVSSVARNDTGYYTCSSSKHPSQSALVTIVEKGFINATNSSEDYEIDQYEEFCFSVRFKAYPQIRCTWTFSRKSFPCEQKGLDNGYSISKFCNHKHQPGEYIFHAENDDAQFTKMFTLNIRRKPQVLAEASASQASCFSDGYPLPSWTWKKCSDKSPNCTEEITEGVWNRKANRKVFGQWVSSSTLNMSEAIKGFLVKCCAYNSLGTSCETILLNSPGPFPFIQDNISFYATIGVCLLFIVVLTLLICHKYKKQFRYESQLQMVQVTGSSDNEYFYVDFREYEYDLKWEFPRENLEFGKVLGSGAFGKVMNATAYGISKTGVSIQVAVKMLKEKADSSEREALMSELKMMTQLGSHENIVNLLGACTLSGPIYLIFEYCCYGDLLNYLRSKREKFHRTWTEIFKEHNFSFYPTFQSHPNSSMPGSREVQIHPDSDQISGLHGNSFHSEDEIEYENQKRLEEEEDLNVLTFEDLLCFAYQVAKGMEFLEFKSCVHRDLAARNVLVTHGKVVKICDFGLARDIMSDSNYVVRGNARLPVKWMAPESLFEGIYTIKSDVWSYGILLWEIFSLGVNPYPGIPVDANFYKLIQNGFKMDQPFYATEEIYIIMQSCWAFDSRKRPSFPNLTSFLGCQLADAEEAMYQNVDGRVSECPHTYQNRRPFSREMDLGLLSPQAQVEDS

[14] = target: GAK (human) (UniProt O14976)
[15] = target: GSK3B (human) (UniProt P49841)
[16] = target: LCK (human) (UniProt P06239)
[17] = target: MAP2K2 (human) (UniProt P36507)
Chain of MAP2K2 (human) (P36507 whole entry, looked up): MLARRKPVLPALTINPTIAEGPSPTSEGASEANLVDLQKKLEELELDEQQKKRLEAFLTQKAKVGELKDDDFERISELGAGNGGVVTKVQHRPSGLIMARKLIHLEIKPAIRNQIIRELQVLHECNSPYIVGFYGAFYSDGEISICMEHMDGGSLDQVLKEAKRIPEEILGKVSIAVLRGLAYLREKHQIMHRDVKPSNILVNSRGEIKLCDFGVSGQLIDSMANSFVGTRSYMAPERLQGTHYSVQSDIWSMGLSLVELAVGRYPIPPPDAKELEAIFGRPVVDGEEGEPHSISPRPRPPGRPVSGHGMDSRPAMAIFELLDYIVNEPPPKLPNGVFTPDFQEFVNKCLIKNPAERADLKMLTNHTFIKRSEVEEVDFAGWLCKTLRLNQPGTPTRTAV

[18] = target: MAP2K4 (human) (UniProt P45985)
[19] = target: MAP2K6 (human) (UniProt P52564)
[20] = target: MAP3K10 (human) (UniProt Q02779)
[21] = target: MAP4K1 (human) (UniProt Q92918)
[22] = target: MAPK10 (human) (UniProt P53779)
[23] = target: MINK1 (human) (UniProt Q8N4C8)
[24] = target: MKNK2 (human) (UniProt Q9HBH9)
[25] = target: MLTK (human) (UniProt Q9NYL2)
[26] = target: NTRK1 (human) (UniProt P04629)
Chain of NTRK1 (human) (P04629 whole entry, looked up): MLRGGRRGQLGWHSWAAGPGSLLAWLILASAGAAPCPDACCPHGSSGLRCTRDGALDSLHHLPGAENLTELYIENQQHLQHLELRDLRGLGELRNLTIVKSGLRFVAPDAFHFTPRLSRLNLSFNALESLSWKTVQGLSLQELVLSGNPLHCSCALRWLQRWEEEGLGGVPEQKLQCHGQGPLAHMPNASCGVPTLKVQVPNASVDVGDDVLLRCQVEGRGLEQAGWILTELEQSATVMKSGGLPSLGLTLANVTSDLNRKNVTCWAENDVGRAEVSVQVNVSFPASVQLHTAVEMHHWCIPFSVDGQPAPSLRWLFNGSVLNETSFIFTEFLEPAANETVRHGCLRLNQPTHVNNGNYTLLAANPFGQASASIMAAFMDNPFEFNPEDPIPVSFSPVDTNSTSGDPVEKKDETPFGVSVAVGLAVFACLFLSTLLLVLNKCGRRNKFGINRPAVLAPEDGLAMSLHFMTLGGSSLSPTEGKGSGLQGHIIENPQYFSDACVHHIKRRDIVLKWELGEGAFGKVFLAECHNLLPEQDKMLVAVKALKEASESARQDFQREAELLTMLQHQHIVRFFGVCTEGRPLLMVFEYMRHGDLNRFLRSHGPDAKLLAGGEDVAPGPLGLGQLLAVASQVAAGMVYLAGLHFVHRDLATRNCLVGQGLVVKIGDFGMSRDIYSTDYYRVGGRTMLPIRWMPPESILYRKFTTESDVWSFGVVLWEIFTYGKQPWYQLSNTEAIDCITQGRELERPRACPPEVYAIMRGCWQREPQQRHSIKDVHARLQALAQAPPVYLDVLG

[27] = target: NTRK3 (human) (UniProt Q16288)
[28] = target: PAK4 (human) (UniProt O96013)
[29] = target: PAK7 (human) (UniProt Q9P286)
[30] = target: PDGFRA (human) (UniProt P16234)
[31] = target: PIM2 (human) (UniProt Q9P1W9)
[32] = target: RPS6KA1 KD1 (human) (UniProt Q15418)
[33] = target: RPS6KA3 KD1 (human) (UniProt P51812)
[34] = target: SLK (human) (UniProt Q9H2G2)
[35] = target: SRMS (human) (UniProt Q9H3Y6)
[36] = target: STK16 (human) (UniProt O75716)
Chain of STK16 (human) (O75716 whole entry, looked up): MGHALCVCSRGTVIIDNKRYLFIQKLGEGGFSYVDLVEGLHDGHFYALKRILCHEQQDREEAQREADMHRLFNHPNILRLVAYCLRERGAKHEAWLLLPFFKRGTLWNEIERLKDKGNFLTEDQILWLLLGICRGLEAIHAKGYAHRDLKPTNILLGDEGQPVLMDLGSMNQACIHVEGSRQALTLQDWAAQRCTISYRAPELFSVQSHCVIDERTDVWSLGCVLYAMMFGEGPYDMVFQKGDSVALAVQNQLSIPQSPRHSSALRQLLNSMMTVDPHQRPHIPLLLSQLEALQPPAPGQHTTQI

[37] = target: STK32B (human) (UniProt Q9NY57)
Chain of STK32B (human) (Q9NY57 whole entry, looked up): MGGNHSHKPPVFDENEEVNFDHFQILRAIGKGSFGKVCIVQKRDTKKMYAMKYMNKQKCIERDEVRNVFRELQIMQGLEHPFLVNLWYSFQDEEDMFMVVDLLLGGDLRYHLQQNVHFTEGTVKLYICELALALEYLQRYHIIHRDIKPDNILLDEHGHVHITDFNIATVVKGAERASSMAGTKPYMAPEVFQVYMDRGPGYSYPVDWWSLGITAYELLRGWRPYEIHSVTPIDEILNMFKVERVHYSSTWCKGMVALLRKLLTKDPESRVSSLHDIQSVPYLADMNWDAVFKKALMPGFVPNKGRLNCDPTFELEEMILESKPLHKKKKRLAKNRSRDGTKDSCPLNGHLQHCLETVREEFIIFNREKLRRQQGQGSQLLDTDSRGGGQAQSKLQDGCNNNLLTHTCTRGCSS

[38] = target: STK38L (human) (UniProt Q9Y2H1)
[39] = target: TAOK3 (human) (UniProt Q9H2K8)
[40] = target: TTK (human) (UniProt P33981)

Chain of BMPR1B (human) (O00238 whole entry, looked up): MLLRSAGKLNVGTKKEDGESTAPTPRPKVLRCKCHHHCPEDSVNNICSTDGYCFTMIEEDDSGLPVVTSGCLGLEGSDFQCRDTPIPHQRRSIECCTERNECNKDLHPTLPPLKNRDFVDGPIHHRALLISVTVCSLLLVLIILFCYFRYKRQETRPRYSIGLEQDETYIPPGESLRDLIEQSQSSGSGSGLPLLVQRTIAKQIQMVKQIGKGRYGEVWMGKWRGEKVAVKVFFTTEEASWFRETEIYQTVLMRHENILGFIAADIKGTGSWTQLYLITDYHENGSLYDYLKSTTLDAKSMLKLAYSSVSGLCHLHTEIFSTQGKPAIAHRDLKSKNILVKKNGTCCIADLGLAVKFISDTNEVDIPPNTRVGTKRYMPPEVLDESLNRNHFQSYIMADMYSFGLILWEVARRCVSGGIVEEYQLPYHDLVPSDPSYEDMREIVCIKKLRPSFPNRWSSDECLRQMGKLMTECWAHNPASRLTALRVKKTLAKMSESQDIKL

Row | SMILES | kinase still bound, per cent of control [1] [%] | kinase still bound, per cent of control [2] [%] | kinase still bound, per cent of control [3] [%] | kinase still bound, per cent of control [4] [%] | kinase still bound, per cent of control [5] [%] | kinase still bound, per cent of control [6] [%] | kinase still bound, per cent of control [7] [%] | kinase still bound, per cent of control [8] [%] | kinase still bound, per cent of control [9] [%] | kinase still bound, per cent of control [10] [%] | kinase still bound, per cent of control [11] [%] | kinase still bound, per cent of control [12] [%] | kinase still bound, per cent of control [13] [%] | kinase still bound, per cent of control [14] [%] | kinase still bound, per cent of control [15] [%] | kinase still bound, per cent of control [16] [%] | kinase still bound, per cent of control [17] [%] | kinase still bound, per cent of control [18] [%] | kinase still bound, per cent of control [19] [%] | kinase still bound, per cent of control [20] [%] | further results
1 | O=C(NC1CC1)c1cccc(-c2ccc3c(NC(=O)C4CC4)n[nH]c3c2)c1 | 100 | 91 | 85 | 96 | 89 | 96 | 98 | 92 | 78 | 100 | 100 | 100 | 63 | 49 | 97 | 100 | 82 | 66 | 55 | 95 | kinase still bound, per cent of control [21]: 68%; kinase still bound, per cent of control [22]: 61%; kinase still bound, per cent of control [23]: 43%; kinase still bound, per cent of control [24]: 50%; kinase still bound, per cent of control [25]: 100%; kinase still bound, per cent of control [26]: 60%; kinase still bound, per cent of control [27]: 44%; kinase still bound, per cent of control [28]: 79%; kinase still bound, per cent of control [29]: 67%; kinase still bound, per cent of control [30]: 29%; kinase still bound, per cent of control [31]: 100%; kinase still bound, per cent of control [32]: 81%; kinase still bound, per cent of control [33]: 86%; kinase still bound, per cent of control [34]: 100%; kinase still bound, per cent of control [35]: 93%; kinase still bound, per cent of control [36]: 3%; kinase still bound, per cent of control [37]: 100%; kinase still bound, per cent of control [38]: 96%; kinase still bound, per cent of control [39]: 33%; kinase still bound, per cent of control [40]: 42%
2 | OCCCNc1cc(-c2ccnc(Nc3cccc(Cl)c3)n2)ccn1 | 100 | 100 | 100 | 100 | 4 | 100 | 100 | 100 | 100 | 100 | 100 | 100 | 100 | 100 | 100 | 100 | 100 | 100 | 100 | 100 | kinase still bound, per cent of control [21]: 100%; kinase still bound, per cent of control [22]: 100%; kinase still bound, per cent of control [23]: 100%; kinase still bound, per cent of control [24]: 100%; kinase still bound, per cent of control [25]: 100%; kinase still bound, per cent of control [26]: 100%; kinase still bound, per cent of control [27]: 100%; kinase still bound, per cent of control [28]: 100%; kinase still bound, per cent of control [29]: 100%; kinase still bound, per cent of control [30]: 100%; kinase still bound, per cent of control [31]: 100%; kinase still bound, per cent of control [32]: 100%; kinase still bound, per cent of control [33]: 100%; kinase still bound, per cent of control [34]: 100%; kinase still bound, per cent of control [35]: 100%; kinase still bound, per cent of control [36]: 100%; kinase still bound, per cent of control [37]: 100%; kinase still bound, per cent of control [38]: 100%; kinase still bound, per cent of control [39]: 100%; kinase still bound, per cent of control [40]: 100%
